Assay results taken from publication PMC12206033, “Selective inhibition of TRPV3 channel by natural rosmarinic acid and its analogs for alleviation of skin lesions through downregulation of NF-κB pathway” (The Journal of Biological Chemistry, 2025).

Key:
TRPV3 T665A = target: T1, TRPV3 T665A (Homo sapiens, UniProt Q8NET8, T665A); test: single-channel inside-out patch recordings of TRPV3 T665A mutant; type: cell-based; details: ROSA 100 μM co-applied with 2-APB 50 μM; n = 4
T1 construct: expressed in transfected cells; host or cells: HEK293T
T1 sequence (Q8NET8 1-790 T665A): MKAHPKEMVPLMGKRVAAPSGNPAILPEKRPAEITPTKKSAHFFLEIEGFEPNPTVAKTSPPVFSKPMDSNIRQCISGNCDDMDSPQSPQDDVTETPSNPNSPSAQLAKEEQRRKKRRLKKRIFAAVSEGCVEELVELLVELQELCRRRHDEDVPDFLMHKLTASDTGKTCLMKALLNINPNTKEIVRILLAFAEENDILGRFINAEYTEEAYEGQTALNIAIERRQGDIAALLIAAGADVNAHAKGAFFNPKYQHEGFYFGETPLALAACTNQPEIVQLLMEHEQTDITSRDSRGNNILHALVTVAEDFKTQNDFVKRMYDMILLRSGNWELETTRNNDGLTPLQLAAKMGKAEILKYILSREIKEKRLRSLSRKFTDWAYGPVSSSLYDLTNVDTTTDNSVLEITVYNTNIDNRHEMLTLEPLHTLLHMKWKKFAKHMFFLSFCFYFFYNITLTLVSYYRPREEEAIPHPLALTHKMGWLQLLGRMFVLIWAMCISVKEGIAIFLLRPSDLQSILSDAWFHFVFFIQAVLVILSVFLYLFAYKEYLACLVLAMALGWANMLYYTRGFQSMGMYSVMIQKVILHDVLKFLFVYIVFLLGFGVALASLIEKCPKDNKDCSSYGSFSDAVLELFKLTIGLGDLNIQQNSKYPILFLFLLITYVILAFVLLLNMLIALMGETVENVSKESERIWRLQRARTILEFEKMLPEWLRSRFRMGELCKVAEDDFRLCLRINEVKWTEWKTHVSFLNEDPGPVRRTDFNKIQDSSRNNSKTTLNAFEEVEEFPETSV
Method: (§1) HEK293T cell line was obtained from the Cell Resource Center, Peking Union Medical College. HEK293T cells were maintained in Dulbecco’s modified Eagle’s medium (DMEM, Gibco) supplemented with 10% fetal bovine serum at 37 °C with 5% CO2. […] The next day, determine the plasmid transfection status by observing green fluorescence based on expression of enhanced GFP as an indicator. […] When conducting experiments on HEK293T cells transfected with G573S point mutant TRPV3 plasmid, we replaced culture medium with or without compounds after 4 h of transfection and then observed green fluorescence of HEK293T cell after 10 h. As for the relative fluorescence intensity, we convert the image to 8 bit grayscale using ImageJ (Https://imagej.net/software/fiji/downloads) and set an appropriate threshold value to reduce background noise and enhance the image contrast.
(§2) All patch-clamp recordings were conducted 16 to 24 h after transfection using an EPC10 amplifier powered by PatchMaster software (HEKA) (https://www.heka.com/downloads/downloads_main.html#down_patchmaster) at room temperature. […] Currents were recorded at a potential ramp from −100 mV to +100 mV for 1000 ms with 1000-ms intervals (for whole-cell recordings) or a persistent potential of −60 mV (inside-out patch recordings). […]

hTRPA1 = target: T2, hTRPA1 (Homo sapiens, UniProt O75762); test: whole-cell patch-clamp of hTRPA1 currents activated by allyl isothiocyanate; type: cell-based; details: ROSA 50 μM; agonist allyl isothiocyanate 300 μM; read-out: inhibition of TRPA1 currents
T2 construct: expressed in transfected cells; host or cells: HEK293T
T2 sequence (O75762 whole entry): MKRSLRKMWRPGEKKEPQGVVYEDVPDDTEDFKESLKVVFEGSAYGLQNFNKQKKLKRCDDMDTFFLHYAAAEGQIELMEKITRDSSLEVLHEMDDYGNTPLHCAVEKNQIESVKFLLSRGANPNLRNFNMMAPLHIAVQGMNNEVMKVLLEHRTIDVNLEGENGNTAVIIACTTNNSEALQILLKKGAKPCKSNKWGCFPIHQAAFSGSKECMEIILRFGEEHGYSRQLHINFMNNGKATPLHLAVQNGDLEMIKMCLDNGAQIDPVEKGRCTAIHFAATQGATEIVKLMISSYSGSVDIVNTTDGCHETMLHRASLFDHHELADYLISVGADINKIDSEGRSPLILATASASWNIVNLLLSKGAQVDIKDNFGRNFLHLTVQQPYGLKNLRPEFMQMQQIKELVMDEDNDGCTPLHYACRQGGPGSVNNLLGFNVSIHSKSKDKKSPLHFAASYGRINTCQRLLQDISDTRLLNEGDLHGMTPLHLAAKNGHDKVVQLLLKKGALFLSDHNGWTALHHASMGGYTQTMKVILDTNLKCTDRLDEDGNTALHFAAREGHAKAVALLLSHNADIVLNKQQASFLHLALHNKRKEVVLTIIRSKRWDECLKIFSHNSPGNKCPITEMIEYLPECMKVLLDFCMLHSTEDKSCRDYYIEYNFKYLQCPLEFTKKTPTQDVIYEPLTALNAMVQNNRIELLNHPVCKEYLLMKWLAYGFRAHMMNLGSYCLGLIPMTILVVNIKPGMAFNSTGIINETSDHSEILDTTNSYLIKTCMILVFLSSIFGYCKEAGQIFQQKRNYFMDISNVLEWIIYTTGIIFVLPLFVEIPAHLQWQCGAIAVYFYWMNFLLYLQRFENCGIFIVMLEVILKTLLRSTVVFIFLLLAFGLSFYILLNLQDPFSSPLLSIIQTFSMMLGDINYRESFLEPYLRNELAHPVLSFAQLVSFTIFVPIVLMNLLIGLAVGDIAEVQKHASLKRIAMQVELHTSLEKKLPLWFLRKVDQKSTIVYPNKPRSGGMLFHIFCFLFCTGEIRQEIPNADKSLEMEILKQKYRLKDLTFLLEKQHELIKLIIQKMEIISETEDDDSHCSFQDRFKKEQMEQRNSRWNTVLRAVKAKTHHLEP
Method: as §1, §2

[1] = test system: TRPV3, IL-6, TNF-α, and p-P65 protein expressions; test: Western blot of TRPV3 and NF-κB pathway proteins in mouse ear tissues; type: in vivo; details: topical ROSA 0.1, 1 and 10 mM; mouse ear tissues; day 5
Method: Skin sensitizer Car was dissolved in saline solution containing 30% ethanol. The dorsal skin or ear of mice was swabbed with 3% Car for four consecutive days. To investigate the effects of ROSA, it was diluted to concentration of 0.1/1/10 mM with saline and topically applied on the ear and dorsal skin once a day for 4 days. The control group only received swabs with the solvent.
Skin or ear skin tissues were homogenized in radioimmunoprecipitation assay buffer (Thermo Fisher Scientific) containing protease inhibitors at a ratio of 100:1 per 10 mg tissue and centrifuged at 15,000 rpm for 15 min. The protein concentration was quantified using a bicinchoninic acid kit (Thermo Fisher Scientific), followed by SDS-PAGE for Western blot analysis. Protein transfer was performed at 150 mA for 90 min, and the transferred membranes (Millipore) were incubated with primary antibodies (TRPV3 antibody, 1:1000, TNF-α antibody, 1:1000, IL-6 antibody, 1:2500, P65 antibody, 1:1000 and p-P65 antibody, 1:1000) in 5% skim milk (Becton, Dickinson and Company). […] Images were quantified using the Image Lab software (https://www.bio-rad.com/zh-cn/product/image-lab-software?ID=KRE6P5E8Z).

## O=C(/C=C/c1ccc(O)c(O)c1)O[C@H](Cc1ccc(O)c(O)c1)C(=O)O [ROSA, rosmarinic acid]
TRPV3 T665A
  single-channel open probability, T665A mutant: 0.69
hTRPA1
  inhibition at 50 µM: 4.5 ± 3.6%
[1]
  protein expressions of TRPV3, IL-6, TNF-α, and p-P65 induced by Car: downregulated the upregulation
